Biological target: T1, Sfp (Bacillus subtilis, UniProt P39135)
T1 sequence (P39135 1-224): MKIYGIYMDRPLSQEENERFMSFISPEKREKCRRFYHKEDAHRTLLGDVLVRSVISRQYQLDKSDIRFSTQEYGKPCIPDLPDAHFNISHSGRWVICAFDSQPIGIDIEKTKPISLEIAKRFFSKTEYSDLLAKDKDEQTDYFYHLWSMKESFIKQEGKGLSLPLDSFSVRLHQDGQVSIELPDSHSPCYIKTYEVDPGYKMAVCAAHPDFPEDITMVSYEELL
Test: ESI-MS of acyl-phosphopantetheine transfer to apo-ACPtcsA
Type: biochemical
Settings: co-substrate apo-ACPtcsA (ACP domain of TcsA)

## CC/C=C/C(=O)SCCNC(=O)CCNC(=O)[C@H](O)C(C)(C)COP(=O)(O)OP(=O)(O)OC[C@H]1O[C@@H](n2cnc3c(N)ncnc32)[C@H](O)[C@@H]1OP(=O)(O)O [compound 11, trans-2-pentenyl-CoA]
  ESI-MS of acyl-phosphopantetheine transfer to apo-ACPtcsA: we biochemically converted apo-ACPtcsA to trans-2-pentenyl-ACPtcsA
